Experimental data as given in patent US10444227B2, “Neural networks formed from cells derived from pluripotent stem cells” (FUJIFILM Cellular Dynamics, Inc., priority 2014, dated 2019).
Entries after “also recorded” stand apart in the source; their conditions may differ.

System: iCell® DopaNeuron cultures
Test: Excitability pharmacology on network bursting, multi-electrode array (MEA) recording
Format: cell-based, human
Conditions: FIG. 11
From the text: The following methods may be used to culture neural cells on a Mestro Multielectrode Array (MEA). iCell® Neurons are thawed and plated into a 48-well MEA plate pre-coated with […] Polyethyleneimine (PEI; Sigma) solution. On day 1 post-plating, 100% of spent medium is replaced with Neurobasal-A medium (NBA; Life Technologies) +10% KnockOut Serum Replacement (KSR; Life Technologies). On day 5 post-plating, 50% of spent medium is replaced with NBA +10% KSR. On day 8 post-plating, baseline activity is recorded, cells are treated with compounds, and the activity is subsequently recorded.
Data analysis and acquisition may be performed using AxIS Software (Axion Integrated Studio, Axion BioSystems). At or after day 8 post-plating, the neuronal preparation may be suitable for data acquisition. Data acquisition can include a pre-application recording (baseline), a compound application recording, followed by a post-application recording (dose). Electrical activity may be acquired using the AxIS Software. The CDlneuronconfig.datastream file can ensure the appropriate data acquisition settings are loaded into the AxIS Software.
In these experiments, iCell® DopaNeurons, iCell® Neurons, and iCell® Astrocytes were obtained from Cellular Dynamics International, Inc. (Madison, Wis.), mixed and cultured on MEA plates as described in Example 1. Cells were cultured in BrainPhys media (Bardy et al., 2015) obtained from the Salk Institute (La Jolla, Calif.).
Two examples of excitability pharmacology, THIP (top) and L-655,708 (bottom), on iCell® DopaNeuron cultures are shown in FIG. 11. THIP activates tonic inhibition, while L-655,708 decreases tonic inhibition.

## CCOC(=O)c1ncn2c1[C@@H]1CCCN1C(=O)c1cc(OC)ccc1-2 [L-655,708]
  'after-quiet' following network burst: abolished
  continuous rumbling of activity: inducing a continuous rumble of activity that dominated activity; also recorded: inducing a continuous rumbling of activity
  network burst intensity: neither pharmacological agent altered network burst intensity
  network synchrony: de-synchronized the network
  post-bursting behaviors: both altered post-bursting behaviors

## Oc1noc2c1CCNC2 [THIP]
  network burst intensity: neither pharmacological agent altered network burst intensity
  post-burst rumbling time (duration of post-burst rumble): shortened
  post-bursting behaviors: both altered post-bursting behaviors
  time (duration) of the entire burst: shortened the time of the entire burst; also recorded: shortened the durations of the entire burst
